Earlier results on 12 compounds are cited in PubChem BioAssay AID493017 (Abbott Labs, 2003).

Usually pIC50 stands for −log10 of the IC50, conventionally taken in molar units.

Molecules are shown by their SMILES. pIC50: −log10 of the molar value.

In the data set the target is Platelet-derived growth factor receptor alpha (Homo sapiens) (UniProt P16234). In words: PubChem AID 493017. The settings on record: WOMBAT literature affinities, multiple human targets; PDGFR; gene PDGFRA; NCBI gene 5156.
Platelet-derived growth factor receptor alpha (Homo sapiens), sequence (P16234 whole entry, looked up): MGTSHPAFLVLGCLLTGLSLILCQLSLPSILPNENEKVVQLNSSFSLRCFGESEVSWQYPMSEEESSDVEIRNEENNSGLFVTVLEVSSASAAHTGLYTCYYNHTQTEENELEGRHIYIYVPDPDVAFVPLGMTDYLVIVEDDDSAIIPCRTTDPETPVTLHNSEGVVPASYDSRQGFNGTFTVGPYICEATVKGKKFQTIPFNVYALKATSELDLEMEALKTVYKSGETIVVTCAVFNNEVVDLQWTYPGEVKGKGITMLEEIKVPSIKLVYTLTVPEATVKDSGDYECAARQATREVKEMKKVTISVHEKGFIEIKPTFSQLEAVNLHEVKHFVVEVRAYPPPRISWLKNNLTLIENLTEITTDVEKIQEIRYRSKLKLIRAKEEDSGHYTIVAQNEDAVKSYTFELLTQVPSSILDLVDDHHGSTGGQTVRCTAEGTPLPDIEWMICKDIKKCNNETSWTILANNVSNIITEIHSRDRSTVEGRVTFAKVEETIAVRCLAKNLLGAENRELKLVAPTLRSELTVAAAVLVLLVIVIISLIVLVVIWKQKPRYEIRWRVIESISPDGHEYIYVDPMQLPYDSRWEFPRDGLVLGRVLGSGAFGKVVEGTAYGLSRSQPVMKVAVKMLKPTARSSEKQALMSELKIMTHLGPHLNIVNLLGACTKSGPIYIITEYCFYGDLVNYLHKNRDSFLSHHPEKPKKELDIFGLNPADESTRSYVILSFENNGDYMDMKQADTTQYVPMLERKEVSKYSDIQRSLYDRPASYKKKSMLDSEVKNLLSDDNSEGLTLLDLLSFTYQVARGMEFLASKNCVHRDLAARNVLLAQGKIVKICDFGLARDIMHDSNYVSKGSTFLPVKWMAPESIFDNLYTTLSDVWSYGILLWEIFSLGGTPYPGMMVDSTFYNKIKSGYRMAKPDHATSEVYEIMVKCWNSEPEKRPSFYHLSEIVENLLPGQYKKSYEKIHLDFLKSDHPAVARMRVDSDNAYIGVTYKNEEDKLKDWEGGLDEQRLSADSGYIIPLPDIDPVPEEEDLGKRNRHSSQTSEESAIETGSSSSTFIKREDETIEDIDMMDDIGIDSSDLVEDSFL
In the case of `CCCCc1ccc(C(=O)c2ccc(Oc3ccnc4cc(OC)c(OC)cc34)cc2)cc1`, the negative logarithm of the IC50 (pIC50) was 6.82.
Regarding `COc1cccc(Oc2ccnc3cc(OC)c(OC)cc23)c1`, the negative-log IC50 (pIC50) is 6.36.
Turning to `COc1cc2nccc(Oc3ccccc3)c2cc1OC`, the pIC50 was 6.12.
Take `COc1cc2nccc(Oc3ccc(C(=O)c4ccc(C)cc4)cc3)c2cc1OC`: the pIC50 was 5.77.
For `COc1cc2nccc(Oc3ccc(C(C)=O)cc3)c2cc1OC`, the pIC50 was 4.82.
`COc1cc2nccc(Oc3ccc(N(C)C(=O)c4ccc(C(C)(C)C)cc4)cc3)c2cc1OC`: the negative logarithm of the IC50 (pIC50) was 6.48.
As to `COc1cc2nccc(Oc3ccccc3C(=O)c3ccccc3)c2cc1OC`, the negative logarithm of the IC50 (pIC50) is 4.32.
On to `COc1cc2nccc(Oc3ccc(NC(=O)c4ccc(C(C)=O)cc4)cc3)c2cc1OC`, for which the pIC50 was 5.44.
On to `COc1cc2nccc(Oc3ccc(NC(=O)c4ccc(C(C)(C)C)cc4)cc3)c2cc1OC`, for which the pIC50 is 7.30.
`COc1cc2nccc(Oc3cccc(OC)c3OC)c2cc1OC`: the pIC50 is 5.36.
For `COc1cc2nccc(Oc3cccc(C)c3)c2cc1OC`, the pIC50 is 5.16.
Take `COc1cc2nccc(Oc3ccc(C(=O)c4ccccc4C(F)(F)F)cc3)c2cc1OC`: the pIC50 is 5.14.
